Experimental data: ChEMBL document CHEMBL1131747, “Derivation of a possible transition-state for the reaction catalysed by the enzyme estrone Sulfatase (ES)” (Bioorg Med Chem Lett, 1999)

The molecules below were run against T1, Steryl-sulfatase (Homo sapiens, UniProt P08842) (assay: Inhibitory activity against estrone sulfatase enzyme).
T1 sequence (P08842 whole entry): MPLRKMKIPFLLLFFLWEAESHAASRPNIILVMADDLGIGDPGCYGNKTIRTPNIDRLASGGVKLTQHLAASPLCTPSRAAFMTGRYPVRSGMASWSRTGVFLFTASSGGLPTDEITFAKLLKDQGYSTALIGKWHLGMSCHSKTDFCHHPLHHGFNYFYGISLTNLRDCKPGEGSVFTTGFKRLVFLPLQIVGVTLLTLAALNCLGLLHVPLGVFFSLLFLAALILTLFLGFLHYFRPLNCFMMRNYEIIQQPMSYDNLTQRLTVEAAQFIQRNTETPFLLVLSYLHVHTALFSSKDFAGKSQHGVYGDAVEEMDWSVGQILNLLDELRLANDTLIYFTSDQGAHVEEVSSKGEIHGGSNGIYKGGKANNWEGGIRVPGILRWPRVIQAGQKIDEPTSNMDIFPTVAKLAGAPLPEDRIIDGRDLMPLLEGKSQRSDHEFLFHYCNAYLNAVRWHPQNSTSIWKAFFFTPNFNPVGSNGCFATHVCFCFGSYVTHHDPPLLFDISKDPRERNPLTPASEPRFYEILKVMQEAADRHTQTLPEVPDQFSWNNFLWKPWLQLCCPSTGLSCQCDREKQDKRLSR
Molecule `NS(=O)(=O)Oc1ccc2c(c1)CCCC2` has an IC50 of 1000 nM. Work on `CCCCCCCCCCCCCC(=O)NCCc1ccc(OS(N)(=O)=O)cc1` yielded an IC50 of 55.8 nM. `C[C@]12CC[C@@H]3c4ccc(OS(N)(=O)=O)cc4CCC3[C@@H]1CCC2=O` (single isomer, unassigned) [EMATE] gave an IC50 of 0.065 nM.
